Results taken from patent publication US7405228B2, “Antibacterial cyano-(substituted)-methylenepiperidinophenyl oxazolidinones targeting multiple ribonucleoprotein sites” (Wockhardt Limited, priority 2002, dated 2008).
Converted amounts (≈) assume the structure as drawn.

Columns and labels:
MRSA 032 = assay: MIC determination, linezolid sensitive MRSA 032 (MRSA-32); type: cell-based; details: Staphylococcus aureus, read-out: MIC MRSA 32
Procedure: (§1) Infecting doses of organisms given by intraperitoneal route in 5% hog gastric mucin were 10^3-10^4 CFU (colony forming units)/animal for SPN 6303 and 10^8 CFU/animal for MRSA-32. In case of MRSA-32, Linezolid was administered by oral route, 1 and 4 h post infection, BID (twice a day) for 1 day and for SPN 6303 BID for 2 days. […] MICs of Methicillin Resistant Staphylococcus aureus-32 Linezolid resistant (MRSA-32 LNZR), S. pneumoniae 744 Linezolid resistant (SPN 744 LNZR) and parent Linezolid sensitive strains MRSA-32 and SPN 6303 were determined for Linezolid by NCCLS agar dilution method.
(§2) Cultures were further diluted 1:10 in Mueller Hinton broth. Using Denley's mutipoint inoculator, 10^4 cells were deposited on Mueller Hinton agar (Difco) containing range of 2 fold dilutions of test compounds. […] MIC is defined as minimum drug concentration that inhibits test organisms. For determining MIC of test compounds against Streptococcus pneumoniae, Mueller Hinton agar containing 5% sheep blood was employed.

S. aureus MRSA-32 LNZR = assay: MIC determination, linezolid resistant S. aureus MRSA-32 LNZR; type: cell-based; details: Staphylococcus aureus, 24 h, read-out: MIC MRSA 32 LNZR
Procedure: as §1, §2

[1] = test system: Enterococcus faecalis 416 strain; assay: Propensity to resistance development (resistant colonies per plate); type: cell-based; details: E. faecalis 416 at 10^8 CFU, compound concentration 5 mcg/ml, 48 hours at 35° C.
Procedure: Enterococcus faecalis 416 strain at 10^8 CFU density level was spirally plated on Mueller Hinton agar containing 5 mcg/ml each of linezolid and representative compound of the invention. Plates were incubated at 35° C. for 48 hours and number of resistant colonies developed in presence of respective compounds were counted by automated counter.

SPN 49619 = assay: MIC determination, linezolid sensitive SPN 49619; type: cell-based; details: Streptococcus pneumoniae; linezolid sensitive strain, Table 3
SPN 744 LNZR = assay: MIC determination, linezolid resistant SPN 744 LNZR; type: cell-based; details: Streptococcus pneumoniae, read-out: MIC SPN744 LNZR
Procedure: as §1, §2

E. faecium 367 LNZR = assay: MIC determination, linezolid resistant E. faecium 367 LNZR; type: cell-based; details: Enterococcus faecium, read-out: MIC E. faecium 367 LNZR
Procedure: E. faecium ATCC 19434 strain at a cell density of 10^6/ml was inoculated in Mueller Hinton broth medium containing Linezolid at a concentration of 5 and 7.5 mcg/ml. The stationary culture was incubated at 37° C. and inspected at every 24 hours to assess the formation of turbidity due to the onset of bacterial growth. […] A 50 microliter sample of turbid flask was plated on Mueller Hinton agar medium incorporated with linezolid at 7.5 mcg/ml. The agar plates were incubated for 48 hours at 37° C. for the formation of discrete colonies of linezolid-resistant strain of E. faecium (E. faecium 367 LNZR). MICs of resistant mutant E. faecium 367 LNZR and parent strain E. faecium ATCC 19434 were determined for linezolid by NCCLS method.
as §2

[2] = test system: Enterococcus faecalis 416 strain; assay: Killing effect study (bactericidal vs bacteriostatic activity); type: cell-based; details: E. faecalis 416, 5 mcg/ml compound, initial count 10^6 CFU/ml, Table 4
Procedure: The initial inoculum was adjusted to 10^6 CFU (colony forming units) per ml. The flasks were kept on shaker in close cabinet at 35° C. Aliquots were drawn at 112 hours and cell count was determined to assess the extent of loss in viability.

[3] = test system: Enterococcus faecalis 416; assay: Mutant Prevention Concentration (MPC) determination; type: cell-based; set-up: unit not given here; details: E. faecalis 416, 10^9 CFU/plate, TSA, 48 hours at 35° C.
Procedure: Clinical isolate Enterococcus faecalis 416 was spirally plated on Tryptic Soya agar (TSA) plate containing various 2 fold dilutions each of a representative compound of the invention and Linezolid so as to give 10^9 CFU/plate. After incubation at 35° C. for 48 hours, the CFU on each plate was determined. MPC is defined as minimum concentration of drug that prevents mutant colonies on respective antibiotic containing plate.

Row | SMILES | MIC (MRSA 032) [µg/mL] | MIC (S. aureus MRSA-32 LNZR) [µg/mL] | No. of colonies/plate [1] | MIC (SPN 49619) [µg/mL] | MIC (SPN 744 LNZR) [µg/mL] | MIC (E. faecium 367 LNZR) [µg/mL] | Final Count (112 h) [2] | MPC [3] | melting point [°C]
1 | N#CC=C1CCN(c2ccc(N3C[C@H](CNC(=O)CCl)OC3=O)cc2F)CC1 [Example 31, (S)-N-{3-[4-(4-cyanomethylidene-piperidin-1-yl)-3-fluorophenyl]-2-oxo-oxazolidin-5-ylmethyl}-chloroacetamide] | 0.8 (≈ 1.97 µM) | 12.5 (≈ 30.7 µM) | 0 | 0.8 (≈ 1.97 µM) | 12.5 (≈ 30.7 µM) | 6.25 (≈ 15.4 µM) | – | – | –
2 | C#CCC(C#N)=C1CCN(c2ccc(N3C[C@H](CNC(C)=O)OC3=O)cc2F)CC1 [Example 96, (S)-N-{3-[4-(4-(1-cyano-3-yne-butylidene)-piperidin-1-yl)-3-fluorophenyl]-2-oxo-oxazolidin-5-ylmethyl}-acetamide] | 0.8 (≈ 1.95 µM) | 12.5 (≈ 30.5 µM) | 0 | 0.8 (≈ 1.95 µM) | 6.25 (≈ 15.2 µM) | 3.12 (≈ 7.6 µM) | <10^2 CFU/ml | 6.25 | –
3 | N#CC=C1CCN(c2ccc(N3C[C@H](CNC(=S)CO)OC3=O)cc2F)CC1 [Example 47, (S)-N-{3-[4-(4-cyanomethylidene-piperidin-1-yl)-3-fluorophenyl]-2-oxo-oxazolidin-5-ylmethyl}-2-hydroxythioacetamide] | 0.8 (≈ 1.98 µM) | – | 0 | 0.4 (≈ 0.989 µM) | – | – | – | – | –
4 | CC(=O)NC[C@H]1CN(c2ccc(N3CCC(=CC#N)CC3)c(F)c2)C(=O)O1 [Example 9, (S)-N-{3-[4-(4-cyanomethylidene-piperidin-1-yl)-3-fluorophenyl]-2-oxo-oxazolidin-5-ylmethyl}-acetamide] | – | – | 0 | – | – | – | 10^3 CFU/ml | 6.25 | –
5 | N#CC=C1CCN(c2ccc(N3C[C@H](CNC(=O)C(Cl)Cl)OC3=O)cc2F)CC1 [Example 32, (S)-N-{3-[4-(4-cyanomethylidene-piperidin-1-yl)-3-fluorophenyl]-2-oxo-oxazolidin-5-ylmethyl}-dichloroacetamide] | 0.8 (≈ 1.81 µM) | 12.5 (≈ 28.3 µM) | 0 | 0.8 (≈ 1.81 µM) | 6.25 (≈ 14.2 µM) | 6.25 (≈ 14.2 µM) | – | 6.25 | –
6 | CC(=O)NC[C@H]1CN(c2ccc(N3CCC(=CC#N)C(F)C3)c(F)c2)C(=O)O1 (mixture of isomers) [Example 56, (S)-N-{3-[4-(4-cyanomethylidene-3-fluoropiperidin-1-yl)-3-fluorophenyl]-2-oxo-oxazolidin-5-ylmethyl}-acetamide] | – | – | 0 | – | – | – | – | – | –
7 | CC(=O)NC[C@H]1CN(c2ccc(N3CCC(=C(C)C#N)CC3)c(F)c2)C(=O)O1 [Example 74, (S)-N-{3-[4-(4-(1-cyanoethylidene)-piperidin-1-yl)-3-fluorophenyl]-2-oxo-oxazolidin-5-ylmethyl}-acetamide] | – | 25 (≈ 64.7 µM) | 0 | – | 6.25 (≈ 16.2 µM) | 6.25 (≈ 16.2 µM) | – | – | –
8 | CC(=O)NC[C@H]1CN(c2ccc(N3CC=C(CC#N)CC3)c(F)c2)C(=O)O1 [Example 159, (S)-N-{3-[4-(4-cyanomethyl-3,4-dehydropiperidin-1-yl)-3-fluorophenyl]-2-oxo-oxazolidin-5-ylmethyl}-acetamide] | – | – | 1.5 × 10^1 | – | – | – | – | – | 132
9 | N#CC=C1CCN(c2ccc(N3C[C@H](CNC(N)=S)OC3=O)cc2F)CC1 [Example 51, (S)-N-{3-[4-(4-cyanomethylidene-piperidin-1-yl)-3-fluorophenyl]-2-oxo-oxazolidin-5-ylmethyl}-thiocarbamide] | 0.4 (≈ 1.03 µM) | 3.12 (≈ 8.01 µM) | 0 | 0.2 (≈ 0.514 µM) | 3.12 (≈ 8.01 µM) | 1.56 (≈ 4.01 µM) | <10^2 CFU/ml | 1.56 | –
10 | CC(=S)NC[C@H]1CN(c2ccc(N3CC/C(=C\C#N)C(F)C3)c(F)c2)C(=O)O1 (stereo partly drawn) [Example 60, (S)-N-{3-[4-(4-cyanomethylidene-3-fluoropiperidin-1-yl)-3-fluorophenyl]-2-oxo-oxazolidin-5-ylmethyl}-thioacetamide] | 0.25 (≈ 0.615 µM) | 6.25 (≈ 15.4 µM) | – | 0.1 (≈ 0.246 µM) | 3.12 (≈ 7.68 µM) | 1.56 (≈ 3.84 µM) | – | – | –
11 | CC(=O)NC[C@H]1CN(c2ccc(N3CCC(=C(Br)C#N)CC3)c(F)c2)C(=O)O1 [Example 117, (S)-N-{3-[4-(4-(1-cyano-1-bromo-methylidene)-piperidin-1-yl)-3-fluorophenyl]-2-oxo-oxazolidin-5-ylmethyl}-acetamide] | 0.8 (≈ 1.77 µM) | 12.5 (≈ 27.7 µM) | – | 0.4 (≈ 0.886 µM) | 6.25 (≈ 13.8 µM) | 3.12 (≈ 6.91 µM) | – | – | –
12 | CC(=S)NC[C@H]1CN(c2ccc(N3CC=C(CC#N)CC3)c(F)c2)C(=O)O1 [Example 160, (S)-N-{3-[4-(4-cyanomethyl-3,4-dehydropiperidin-1-yl)-3-fluorophenyl]-2-oxo-oxazolidin-5-ylmethyl}-thioacetamide] | 0.4 (≈ 1.03 µM) | 6.25 (≈ 16.1 µM) | 0 | 0.2 (≈ 0.515 µM) | 3.12 (≈ 8.03 µM) | – | <10^2 CFU/ml | – | –
13 | CCC(C#N)=C1CCN(c2ccc(N3C[C@H](CNC(C)=S)OC3=O)cc2F)CC1 [Example 93, (S)-N-{3-[4-(4-(1-cyanopropylidene)-piperidin-1-yl)-3-fluorophenyl]-2-oxo-oxazolidin-5-ylmethyl}-thioacetamide] | 0.4 (≈ 0.96 µM) | 6.25 (≈ 15 µM) | – | 0.2 (≈ 0.48 µM) | 3.12 (≈ 7.49 µM) | 1.56 (≈ 3.75 µM) | – | – | –
14 | CC(=S)NC[C@H]1CN(c2ccc(N3CCC(=C(C)C#N)CC3)c(F)c2)C(=O)O1 [Example 84, (S)-N-{3-[4-(4-(1-cyanoethylidene)-piperidin-1-yl)-3-fluorophenyl]-2-oxo-oxazolidin-5-ylmethyl}-thioacetamide] | 0.4 (≈ 0.994 µM) | 1.56 (≈ 3.88 µM) | – | 0.2 (≈ 0.497 µM) | 1.56 (≈ 3.88 µM) | 1.56 (≈ 3.88 µM) | – | – | –
15 | CCC(C#N)=C1CCN(c2ccc(N3C[C@H](CNC(=O)C(Cl)Cl)OC3=O)cc2F)CC1 [Example 90, (S)-N-{3-[4-(4-(1-cyanopropylidene)-piperidin-1-yl)-3-fluorophenyl]-2-oxo-oxazolidin-5-ylmethyl}-dichloroacetamide] | 0.8 (≈ 1.7 µM) | 12.5 (≈ 26.6 µM) | 0 | 0.4 (≈ 0.852 µM) | 6.25 (≈ 13.3 µM) | 3.12 (≈ 6.65 µM) | – | – | –
16 | CSC(C#N)=C1CCN(c2ccc(N3C[C@H](CNC(C)=O)OC3=O)cc2F)CC1 [Example 115, (S)-N-{3-[4-(4-(1-cyano-1-methylmercapto-methylidene)-piperidin-1-yl)-3-fluorophenyl]-2-oxo-oxazolidin-5-ylmethyl}-acetamide] | 0.8 (≈ 1.91 µM) | 12.5 (≈ 29.9 µM) | – | 0.8 (≈ 1.91 µM) | 6.25 (≈ 14.9 µM) | 3.12 (≈ 7.46 µM) | – | – | –
17 | COC(=S)NC[C@H]1CN(c2ccc(N3CC/C(=C\C#N)C(C)C3)c(F)c2)C(=O)O1 (stereo partly drawn) [Example 67, (S)-N-{3-[4-(4-cyanomethylidene-3-methylpiperidin-1-yl)-3-fluorophenyl]-2-oxo-oxazolidin-5-ylmethyl}-methylthiocarbamate] | 0.8 (≈ 1.91 µM) | 12.5 (≈ 29.9 µM) | – | 0.4 (≈ 0.956 µM) | 6.25 (≈ 14.9 µM) | 3.12 (≈ 7.46 µM) | – | – | –
18 | CC(=O)NC[C@H]1CN(c2ccc(N3CC/C(=C/C#N)C(F)C3)c(F)c2)C(=O)O1 (stereo partly drawn) [56 (Z), Z-(S)-N-{3-[4-(4-cyanomethylidene-3-fluoropiperidin-1-yl)-3-fluorophenyl]-2-oxo-oxazolidin-5-ylmethyl}-acetamide] | 0.8 (≈ 2.05 µM) | 25 (≈ 64 µM) | – | 0.8 (≈ 2.05 µM) | 12.5 (≈ 32 µM) | 6.25 (≈ 16 µM) | – | – | –
